Data on one molecule can be found in publication PMC8333425, “Discovery of a dual Ras and ARF6 inhibitor from a GPCR endocytosis screen” (Nature Communications, 2021).

Common to all, as to assay: KINOMEscan kinase binding assay
Assay [1] addresses T1, 384 kinases from the human genome (Homo sapiens, UniProt Q8IVW4).
T1 construct: purchased Eurofin/DiscoverX
The following applies: kinase CDKL3 (Entrez CDKL3). An outline of the steps:
(§1)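 A panel of 384 human kinases was profiled by KINOMEscan binding in the presence of 10 µM compound. Kinase–ligand binding was given as percent of DMSO control, averaged from duplicates in a single run, with an S(10) selectivity score.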

Assay [2] addresses T2, 384 kinases from the human genome (Homo sapiens, UniProt Q8IW41).
T2 construct: purchased Eurofin/DiscoverX
The following applies: kinase MAPKAPK5 (Entrez MAPKAPK5). An outline of the steps: as §1

Assay [3] concerns the target T3, 384 kinases from the human genome (Homo sapiens, UniProt Q08345).
T3 construct: purchased Eurofin/DiscoverX
The following applies: kinase DDR1 (Entrez DDR1). An outline of the steps:
as §1

Assay [4] concerns the target T4, 384 kinases from the human genome (Homo sapiens, UniProt Q9NYY3).
T4 construct: purchased Eurofin/DiscoverX
The following applies: kinase PLK2 (Entrez PLK2). An outline of the steps: as §1

Assay [5] concerns the target T5, 384 kinases from the human genome (Homo sapiens, UniProt Q9Y2H1).
T5 construct: purchased Eurofin/DiscoverX
The following applies: kinase NDR2 (Entrez STK38L). A digest of the protocol: as §1

In assay [6] the target is T6, 384 kinases from the human genome (Homo sapiens, UniProt Q9UPE1).
T6 construct: purchased Eurofin/DiscoverX
The following applies: kinase SRPK3 (Entrez SRPK3). An outline of the steps: as §1

For assay [7], the target named is T7, 384 kinases from the human genome (Homo sapiens, UniProt Q8N568).
T7 construct: purchased Eurofin/DiscoverX
The following applies: kinase DCAMKL2 (Entrez DCLK2). An outline of the steps:
as §1

Assay [8] deals with T8, 384 kinases from the human genome (Homo sapiens, UniProt Q16584).
T8 construct: purchased Eurofin/DiscoverX
The following applies: kinase MLK3 (Entrez MAP3K11). A digest of the protocol:
as §1

Assay [9] deals with T9, 384 kinases from the human genome (Homo sapiens, UniProt Q96D53).
T9 construct: purchased Eurofin/DiscoverX
The following applies: kinase ADCK4 (Entrez ADCK4). An outline of the steps:
as §1

For assay [10], the target named is T10, 384 kinases from the human genome (Homo sapiens, UniProt Q8NEV4).
T10 construct: purchased Eurofin/DiscoverX
The following applies: kinase MYO3A (Entrez MYO3A). An outline of the steps: as §1

Assay [11] concerns the target T11, 384 kinases from the human genome (Homo sapiens, UniProt P78356).
T11 construct: purchased Eurofin/DiscoverX
The following applies: kinase PIP5K2B (Entrez PIP4K2B). A digest of the protocol:
as §1

Assay [12] addresses T12, 384 kinases from the human genome (Homo sapiens, UniProt P24723).
T12 construct: purchased Eurofin/DiscoverX
The following applies: kinase PRKCH (Entrez PRKCH). An outline of the steps:
as §1

Assay [13] addresses T13, 384 kinases from the human genome (Homo sapiens, UniProt Q00536).
T13 construct: purchased Eurofin/DiscoverX
The following applies: kinase PCTK1 (Entrez CDK16). A digest of the protocol: as §1

Assay [14] concerns the target T14, 384 kinases from the human genome (Homo sapiens, UniProt P09769).
T14 construct: purchased Eurofin/DiscoverX
The following applies: kinase FGR (Entrez FGR). An outline of the steps:
as §1

Assay [15] concerns the target T15, 384 kinases from the human genome (Homo sapiens, UniProt Q9Y463).
T15 construct: purchased Eurofin/DiscoverX
The following applies: kinase DYRK1B (Entrez DYRK1B). An outline of the steps: as §1

Assay [16] addresses T16, 384 kinases from the human genome (Homo sapiens, UniProt Q00535).
T16 construct: purchased Eurofin/DiscoverX
The following applies: kinase CDK5 (Entrez CDK5). A digest of the protocol: as §1

Assay [17] deals with T17, 384 kinases from the human genome (Homo sapiens, UniProt Q9H4B4).
T17 construct: purchased Eurofin/DiscoverX
The following applies: kinase PLK3 (Entrez PLK3). An outline of the steps:
as §1

The target in assay [18] is T18, 384 kinases from the human genome (Homo sapiens, UniProt Q13882).
T18 construct: purchased Eurofin/DiscoverX
The following applies: kinase BRK (Entrez PTK6). An outline of the steps: as §1

The target of assay [19] is T19, 384 kinases from the human genome (Homo sapiens, UniProt P09619).
T19 construct: purchased Eurofin/DiscoverX
An outline of the steps:
as §1

The target of assay [20] is T20, 384 kinases from the human genome (Homo sapiens, UniProt P36894).
T20 construct: purchased Eurofin/DiscoverX
The following applies: kinase BMPR1A (Entrez BMPR1A). A digest of the protocol: as §1

Assay [21] concerns the target T21, 384 kinases from the human genome (Homo sapiens, UniProt Q13705).
T21 construct: purchased Eurofin/DiscoverX
The following applies: kinase ACVR2B (Entrez ACVR2B). An outline of the steps:
as §1

The target in assay [22] is T22, 384 kinases from the human genome (Homo sapiens, UniProt Q9BQI3).
T22 construct: purchased Eurofin/DiscoverX
The following applies: kinase EIF2AK1 (Entrez EIF2AK1). A digest of the protocol:
as §1

The target in assay [23] is T23, 384 kinases from the human genome (Homo sapiens, UniProt P51451).
T23 construct: purchased Eurofin/DiscoverX
The following applies: kinase BLK (Entrez BLK). A digest of the protocol: as §1

T19 sequence (P09619 33-1106): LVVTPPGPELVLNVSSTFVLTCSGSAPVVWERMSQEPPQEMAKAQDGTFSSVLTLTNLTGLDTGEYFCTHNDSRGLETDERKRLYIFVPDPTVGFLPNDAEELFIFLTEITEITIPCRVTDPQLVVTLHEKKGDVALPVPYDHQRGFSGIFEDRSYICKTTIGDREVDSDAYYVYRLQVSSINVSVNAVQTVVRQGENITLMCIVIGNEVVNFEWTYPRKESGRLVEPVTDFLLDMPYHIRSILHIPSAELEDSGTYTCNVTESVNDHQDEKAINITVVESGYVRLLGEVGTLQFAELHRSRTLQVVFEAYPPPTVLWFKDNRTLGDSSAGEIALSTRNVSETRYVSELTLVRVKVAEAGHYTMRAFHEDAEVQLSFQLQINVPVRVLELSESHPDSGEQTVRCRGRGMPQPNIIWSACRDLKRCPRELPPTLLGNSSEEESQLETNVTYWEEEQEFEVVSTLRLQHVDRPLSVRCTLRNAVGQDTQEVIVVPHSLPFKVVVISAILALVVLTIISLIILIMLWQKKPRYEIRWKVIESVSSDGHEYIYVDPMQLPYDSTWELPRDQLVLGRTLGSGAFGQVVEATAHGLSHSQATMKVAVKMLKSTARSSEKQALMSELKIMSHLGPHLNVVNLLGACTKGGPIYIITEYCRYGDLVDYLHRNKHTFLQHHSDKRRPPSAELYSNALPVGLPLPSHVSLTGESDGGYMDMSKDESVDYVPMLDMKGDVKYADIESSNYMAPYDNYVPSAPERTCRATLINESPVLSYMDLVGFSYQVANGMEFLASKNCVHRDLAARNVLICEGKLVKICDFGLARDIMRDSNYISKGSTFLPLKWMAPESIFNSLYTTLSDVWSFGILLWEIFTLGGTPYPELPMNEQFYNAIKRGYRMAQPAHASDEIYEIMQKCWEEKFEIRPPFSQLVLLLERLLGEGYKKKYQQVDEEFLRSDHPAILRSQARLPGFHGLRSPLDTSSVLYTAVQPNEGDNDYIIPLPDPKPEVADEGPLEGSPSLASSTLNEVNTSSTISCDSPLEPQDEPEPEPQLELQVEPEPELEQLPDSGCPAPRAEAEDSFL
T22 sequence (Q9BQI3 whole entry): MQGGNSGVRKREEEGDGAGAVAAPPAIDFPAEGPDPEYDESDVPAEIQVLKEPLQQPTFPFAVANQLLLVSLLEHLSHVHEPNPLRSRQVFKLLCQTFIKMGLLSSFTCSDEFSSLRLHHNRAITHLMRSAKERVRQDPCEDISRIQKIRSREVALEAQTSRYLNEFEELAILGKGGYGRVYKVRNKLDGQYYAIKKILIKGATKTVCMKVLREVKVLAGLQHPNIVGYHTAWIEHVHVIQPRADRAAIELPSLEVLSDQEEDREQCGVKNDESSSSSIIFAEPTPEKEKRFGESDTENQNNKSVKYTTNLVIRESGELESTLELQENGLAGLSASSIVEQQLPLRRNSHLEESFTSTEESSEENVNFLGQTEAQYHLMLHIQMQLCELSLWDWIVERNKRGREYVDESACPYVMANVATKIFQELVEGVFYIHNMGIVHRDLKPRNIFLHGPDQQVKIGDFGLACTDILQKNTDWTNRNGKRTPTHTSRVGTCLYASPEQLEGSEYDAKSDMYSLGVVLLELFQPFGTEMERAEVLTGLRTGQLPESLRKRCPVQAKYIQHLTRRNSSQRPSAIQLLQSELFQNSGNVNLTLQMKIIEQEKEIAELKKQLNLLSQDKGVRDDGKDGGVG
T18 sequence (Q13882 whole entry): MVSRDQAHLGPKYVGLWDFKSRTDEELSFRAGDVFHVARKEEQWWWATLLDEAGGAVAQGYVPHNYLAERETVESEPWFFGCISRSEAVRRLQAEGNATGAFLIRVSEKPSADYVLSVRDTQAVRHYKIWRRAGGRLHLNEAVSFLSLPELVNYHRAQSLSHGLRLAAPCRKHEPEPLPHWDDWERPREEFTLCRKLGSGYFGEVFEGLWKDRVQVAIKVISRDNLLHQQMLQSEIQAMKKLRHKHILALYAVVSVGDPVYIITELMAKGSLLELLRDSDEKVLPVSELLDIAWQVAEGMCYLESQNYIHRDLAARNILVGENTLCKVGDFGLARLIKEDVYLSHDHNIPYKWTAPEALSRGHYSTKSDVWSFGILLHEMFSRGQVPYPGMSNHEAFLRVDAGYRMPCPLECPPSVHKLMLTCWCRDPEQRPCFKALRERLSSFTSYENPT
T3 sequence (Q08345 19-913): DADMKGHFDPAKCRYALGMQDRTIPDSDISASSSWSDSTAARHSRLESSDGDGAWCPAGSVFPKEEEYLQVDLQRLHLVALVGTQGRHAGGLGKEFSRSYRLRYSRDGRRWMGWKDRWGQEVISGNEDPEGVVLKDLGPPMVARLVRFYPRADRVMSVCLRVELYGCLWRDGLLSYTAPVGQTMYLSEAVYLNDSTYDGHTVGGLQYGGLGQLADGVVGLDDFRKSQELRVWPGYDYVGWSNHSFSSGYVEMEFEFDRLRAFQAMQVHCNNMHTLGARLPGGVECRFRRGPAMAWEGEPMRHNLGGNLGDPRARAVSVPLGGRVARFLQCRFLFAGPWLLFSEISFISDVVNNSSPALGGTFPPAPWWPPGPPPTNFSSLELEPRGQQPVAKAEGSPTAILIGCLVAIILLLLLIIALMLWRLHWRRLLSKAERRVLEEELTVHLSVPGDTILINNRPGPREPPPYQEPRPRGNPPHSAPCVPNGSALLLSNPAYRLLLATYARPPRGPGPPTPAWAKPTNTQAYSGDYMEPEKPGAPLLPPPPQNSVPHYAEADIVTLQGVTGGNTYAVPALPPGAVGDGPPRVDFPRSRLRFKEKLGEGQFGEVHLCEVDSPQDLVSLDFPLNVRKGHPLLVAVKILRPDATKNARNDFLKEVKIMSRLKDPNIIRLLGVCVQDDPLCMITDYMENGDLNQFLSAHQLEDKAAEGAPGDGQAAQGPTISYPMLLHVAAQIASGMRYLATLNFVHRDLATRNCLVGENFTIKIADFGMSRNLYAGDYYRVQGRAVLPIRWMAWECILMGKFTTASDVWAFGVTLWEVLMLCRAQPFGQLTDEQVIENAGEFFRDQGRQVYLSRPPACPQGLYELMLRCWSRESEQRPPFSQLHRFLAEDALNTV
T1 sequence (Q8IVW4 whole entry): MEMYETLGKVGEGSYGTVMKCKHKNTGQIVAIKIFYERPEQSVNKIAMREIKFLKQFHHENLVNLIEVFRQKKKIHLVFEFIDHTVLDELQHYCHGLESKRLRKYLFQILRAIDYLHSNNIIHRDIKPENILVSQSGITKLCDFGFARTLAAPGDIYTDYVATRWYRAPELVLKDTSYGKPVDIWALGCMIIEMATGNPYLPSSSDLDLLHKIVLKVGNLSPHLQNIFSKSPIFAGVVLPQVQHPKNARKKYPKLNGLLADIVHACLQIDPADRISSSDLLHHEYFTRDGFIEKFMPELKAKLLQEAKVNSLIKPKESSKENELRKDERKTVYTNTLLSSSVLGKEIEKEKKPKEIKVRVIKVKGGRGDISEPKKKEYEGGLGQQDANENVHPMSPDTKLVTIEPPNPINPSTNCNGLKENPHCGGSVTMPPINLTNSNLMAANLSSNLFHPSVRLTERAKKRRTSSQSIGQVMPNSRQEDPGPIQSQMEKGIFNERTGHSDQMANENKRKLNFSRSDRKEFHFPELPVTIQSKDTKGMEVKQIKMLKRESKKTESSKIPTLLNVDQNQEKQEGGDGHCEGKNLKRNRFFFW
T7 sequence (Q8N568 whole entry): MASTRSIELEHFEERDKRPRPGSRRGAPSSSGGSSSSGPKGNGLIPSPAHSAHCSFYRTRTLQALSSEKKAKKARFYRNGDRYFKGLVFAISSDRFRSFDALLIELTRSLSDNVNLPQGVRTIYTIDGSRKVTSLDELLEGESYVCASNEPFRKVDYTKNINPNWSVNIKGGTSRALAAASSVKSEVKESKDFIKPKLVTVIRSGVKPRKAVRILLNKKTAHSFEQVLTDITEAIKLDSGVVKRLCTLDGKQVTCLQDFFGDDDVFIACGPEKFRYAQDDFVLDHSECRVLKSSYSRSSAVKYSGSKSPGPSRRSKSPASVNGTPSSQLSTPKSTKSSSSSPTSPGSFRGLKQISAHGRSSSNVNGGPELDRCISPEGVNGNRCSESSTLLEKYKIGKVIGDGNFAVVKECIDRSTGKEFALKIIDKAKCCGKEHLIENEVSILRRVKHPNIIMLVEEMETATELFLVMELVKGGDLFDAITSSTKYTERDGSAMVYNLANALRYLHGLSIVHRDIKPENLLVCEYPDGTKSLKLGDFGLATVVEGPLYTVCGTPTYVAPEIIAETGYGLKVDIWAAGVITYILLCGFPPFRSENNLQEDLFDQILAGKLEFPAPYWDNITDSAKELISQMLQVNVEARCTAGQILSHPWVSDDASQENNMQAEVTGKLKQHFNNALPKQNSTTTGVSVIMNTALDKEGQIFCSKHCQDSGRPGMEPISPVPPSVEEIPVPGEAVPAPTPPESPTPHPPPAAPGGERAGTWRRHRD
T21 sequence (Q13705 19-512): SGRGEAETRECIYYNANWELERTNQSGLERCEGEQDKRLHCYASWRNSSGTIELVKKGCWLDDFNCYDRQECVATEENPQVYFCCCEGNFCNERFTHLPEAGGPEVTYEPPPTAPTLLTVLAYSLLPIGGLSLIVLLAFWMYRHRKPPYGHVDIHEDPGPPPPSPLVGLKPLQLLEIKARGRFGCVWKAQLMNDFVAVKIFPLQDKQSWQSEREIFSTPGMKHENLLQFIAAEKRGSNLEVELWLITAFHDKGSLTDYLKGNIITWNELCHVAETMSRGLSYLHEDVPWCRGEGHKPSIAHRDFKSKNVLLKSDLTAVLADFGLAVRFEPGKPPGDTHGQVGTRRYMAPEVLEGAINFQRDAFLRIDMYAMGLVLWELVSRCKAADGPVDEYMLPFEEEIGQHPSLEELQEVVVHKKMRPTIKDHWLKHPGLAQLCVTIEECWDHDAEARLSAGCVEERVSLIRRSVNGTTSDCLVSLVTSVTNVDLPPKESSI

With `CC(C)C(=O)N1CCN(c2ccc(NC(=O)c3cc4ccccc4o3)cc2Cl)CC1` [Compound 21], the “Percent Control” value in [1] was 100%; in [2] it was 98%; in [3] it was 90%; in [4], 90%; in [5], 77%; in assay [6], 100%. In addition, the “Percent Control” value in assay [7] worked out at 99%; in assay [8], 93%; in assay [9], 77%; in assay [10] it was 89%; in assay [11], 83%; in assay [12] it was 92%. For the same molecule, the “Percent Control” value is listed as 96% in [13]; 73% in assay [14]; 79% in assay [15]; 94% in assay [16]; 81% in [17]; 88% in [18]. The “Percent Control” value turned out to be 2.6% in [19] (kinase PDGFRB (Entrez PDGFRB)); 79% in assay [20]; 89% in assay [21]; 98% in [22]; 78% in assay [23]. Also, the “PDGFRB binding to its ligand affected” value in [19] (10 µM of 21, compared to DMSO (100%)) was “more than 90%”.
